From the NIST ThermoML archive (doi:10.1016/j.fluid.2015.12.031) come the findings set out here.

± gives the expanded uncertainty stated by the source.

For the series the following is noted: Liquid; Resistive pulse heating.
For the compound `CCOC(=O)CCCCC(=O)OCC` [diethyl hexanedioate], the Critical pressure came out at 1990 ± 60 kPa and the Critical temperature is reported as 697 ± 7 K.

Turning to `CCOC(=O)CC(=O)OCC` [diethyl 1,3-propanedioate], the Critical pressure is 2700 ± 80 kPa and the Critical temperature turned out to be 651 ± 7 K.

`CCOC(=O)CCC(=O)OCC` [diethyl butanedioate]: the Critical pressure worked out at 2290 ± 70 kPa and the Critical temperature was 666 ± 7 K.
